In ChEMBL document CHEMBL4308841, “Synthesis, in vitro antiproliferative activity, and kinase inhibitory effects of pyrazole-containing diarylureas and diarylamides” (Eur J Med Chem, 2018):

Experiments:
Assay type in all cases: functional
[1] = tested on: HL-60(TB); assay: Growth inhibition of human HL-60(TB) cells assessed as cell growth at 10 uM incubated for 48 hrs by sulforhodamine B assay relative to control; conditions: HL-60, 48 h, read-out: Activity
[2] = tested on: MDA-MB-435; assay: Growth inhibition of human MDA-MB-435 cells assessed as cell growth at 10 uM incubated for 48 hrs by sulforhodamine B assay relative to control; conditions: MDA-MB-435, 48 h, read-out: Activity
[3] = tested on: SF-539; assay: Growth inhibition of human SF539 cells assessed as cell growth at 10 uM incubated for 48 hrs by sulforhodamine B assay relative to control; conditions: SF-539, 48 h, read-out: Activity
[4] = tested on: SR; assay: Growth inhibition of human SR cells assessed as cell growth at 10 uM incubated for 48 hrs by sulforhodamine B assay relative to control; conditions: read-out: Activity
[5] = tested on: NCI-H322M; assay: Growth inhibition of human NCI-H322M cells assessed as cell growth at 10 uM incubated for 48 hrs by sulforhodamine B assay relative to control; conditions: read-out: Activity
[6] = tested on: UACC-257; assay: Growth inhibition of human UACC257 cells assessed as cell growth at 10 uM incubated for 48 hrs by sulforhodamine B assay relative to control; conditions: UACC-257, 48 h, read-out: Activity
[7] = tested on: 786-0; assay: Growth inhibition of human 786-0 cells assessed as cell growth at 10 uM incubated for 48 hrs by sulforhodamine B assay relative to control; conditions: 786-0, 48 h, read-out: Activity
[8] = tested on: OVCAR-5; assay: Growth inhibition of human OVCAR5 cells assessed as cell growth at 10 uM incubated for 48 hrs by sulforhodamine B assay relative to control; conditions: OVCAR-5, 48 h, read-out: Activity
[9] = tested on: CAKI-1; assay: Growth inhibition of human Caki1 cells assessed as cell growth at 10 uM incubated for 48 hrs by sulforhodamine B assay relative to control; conditions: CAKI-1, 48 h, read-out: Activity
[10] = tested on: CCRF-CEM; assay: Growth inhibition of human CCRF-CEM cells assessed as cell growth at 10 uM incubated for 48 hrs by sulforhodamine B assay relative to control; conditions: read-out: Activity
[11] = tested on: HCC 2998; assay: Growth inhibition of human HCC2998 cells assessed as cell growth at 10 uM incubated for 48 hrs by sulforhodamine B assay relative to control; conditions: HCC 2998, 48 h, read-out: Activity
[12] = tested on: RXF 393; assay: Growth inhibition of human RXF393 cells assessed as cell growth at 10 uM incubated for 48 hrs by sulforhodamine B assay relative to control; conditions: RXF 393, 48 h, read-out: Activity
[13] = tested on: HCT-116; assay: Growth inhibition of human HCT116 cells assessed as cell growth at 10 uM incubated for 48 hrs by sulforhodamine B assay relative to control; conditions: HCT-116, 48 h, read-out: Activity
[14] = tested on: MOLT-4; assay: Growth inhibition of human MOLT4 cells assessed as cell growth at 10 uM incubated for 48 hrs by sulforhodamine B assay relative to control; conditions: MOLT-4, 48 h, read-out: Activity
[15] = tested on: NCI-H226; assay: Growth inhibition of human NCI-H226 cells assessed as cell growth at 10 uM incubated for 48 hrs by sulforhodamine B assay relative to control; conditions: NCI-H226, 48 h, read-out: Activity
[16] = tested on: MCF7; assay: Growth inhibition of human MCF7 cells assessed as cell growth at 10 uM incubated for 48 hrs by sulforhodamine B assay relative to control; conditions: MCF7, 48 h, read-out: Activity
[17] = tested on: LOX IMVI; assay: Growth inhibition of human LOXIMVI cells assessed as cell growth at 10 uM incubated for 48 hrs by sulforhodamine B assay relative to control; conditions: read-out: Activity
[18] = tested on: UO-31; assay: Growth inhibition of human UO31 cells assessed as cell growth at 10 uM incubated for 48 hrs by sulforhodamine B assay relative to control; conditions: UO-31, 48 h, read-out: Activity
[19] = tested on: NCI-H460; assay: Growth inhibition of human NCI-H460 cells assessed as cell growth at 10 uM incubated for 48 hrs by sulforhodamine B assay relative to control; conditions: NCI-H460, 48 h, read-out: Activity
[20] = tested on: BT-549; assay: Growth inhibition of human BT549 cells assessed as cell growth at 10 uM incubated for 48 hrs by sulforhodamine B assay relative to control; conditions: BT-549, 48 h, read-out: Activity
[21] = tested on: KM12; assay: Growth inhibition of human KM12 cells assessed as cell growth at 10 uM incubated for 48 hrs by sulforhodamine B assay relative to control; conditions: KM12, 48 h, read-out: Activity
[22] = tested on: SNB-75; assay: Growth inhibition of human SNB75 cells assessed as cell growth at 10 uM incubated for 48 hrs by sulforhodamine B assay relative to control; conditions: SNB-75, 48 h, read-out: Activity
[23] = tested on: ACHN; assay: Growth inhibition of human ACHN cells assessed as cell growth at 10 uM incubated for 48 hrs by sulforhodamine B assay relative to control; conditions: read-out: Activity
[24] = tested on: PC-3; assay: Growth inhibition of human PC3 cells assessed as cell growth at 10 uM incubated for 48 hrs by sulforhodamine B assay relative to control; conditions: PC-3, 48 h, read-out: Activity
[25] = tested on: MDA-MB-468; assay: Growth inhibition of human MDA-MB-468 cells assessed as cell growth at 10 uM incubated for 48 hrs by sulforhodamine B assay relative to control; conditions: MDA-MB-468, 48 h, read-out: Activity
[26] = tested on: A498; assay: Growth inhibition of human A498 cells assessed as cell growth at 10 uM incubated for 48 hrs by sulforhodamine B assay relative to control; conditions: A498, 48 h, read-out: Activity
[27] = tested on: SNB-19; assay: Growth inhibition of human SNB19 cells assessed as cell growth at 10 uM incubated for 48 hrs by sulforhodamine B assay relative to control; conditions: SNB-19, 48 h, read-out: Activity
[28] = tested on: M14; assay: Growth inhibition of human M14 cells assessed as cell growth at 10 uM incubated for 48 hrs by sulforhodamine B assay relative to control; conditions: M14, 48 h, read-out: Activity
[29] = tested on: SK-MEL-5; assay: Growth inhibition of human SK-MEL-5 cells assessed as cell growth at 10 uM incubated for 48 hrs by sulforhodamine B assay relative to control; conditions: SK-MEL-5, 48 h, read-out: Activity
[30] = tested on: SF-295; assay: Growth inhibition of human SF295 cells assessed as cell growth at 10 uM incubated for 48 hrs by sulforhodamine B assay relative to control; conditions: SF-295, 48 h, read-out: Activity
[31] = tested on: T47D; assay: Growth inhibition of human T47D cells assessed as cell growth at 10 uM incubated for 48 hrs by sulforhodamine B assay relative to control; conditions: read-out: Activity
[32] = tested on: SK-MEL-28; assay: Growth inhibition of human SK-MEL-28 cells assessed as cell growth at 10 uM incubated for 48 hrs by sulforhodamine B assay relative to control; conditions: SK-MEL-28, 48 h, read-out: Activity
[33] = tested on: A549; assay: Growth inhibition of human A549/ATCC cells assessed as cell growth at 10 uM incubated for 48 hrs by sulforhodamine B assay relative to control; conditions: A549, 48 h, read-out: Activity

Compound	growth at 10 µM [1] [%]	growth at 10 µM [2] [%]	growth at 10 µM [3] [%]	growth at 10 µM [4] [%]	growth at 10 µM [5] [%]	growth at 10 µM [6] [%]	growth at 10 µM [7] [%]	growth at 10 µM [8] [%]	growth at 10 µM [9] [%]	growth at 10 µM [10] [%]	growth at 10 µM [11] [%]	growth at 10 µM [12] [%]	growth at 10 µM [13] [%]	growth at 10 µM [14] [%]	growth at 10 µM [15] [%]	growth at 10 µM [16] [%]	growth at 10 µM [17] [%]	growth at 10 µM [18] [%]	growth at 10 µM [19] [%]	growth at 10 µM [20] [%]	also measured
COc1cc(Cl)cc(-c2nn(-c3cccc(NC(=O)c4ccc(Cl)c(Cl)c4)c3)cc2-c2ccncc2)c1	94.1	80.8	74.5	43.6	84.5	84.2	74.1	79.2	63.6	59.2	77.8	59.2	44.1	54.9	66.2	57.7	72.8	43.5	65.2	85.2	growth at 10 µM [21]: 62.3%; growth at 10 µM [22]: 50.6%; growth at 10 µM [23]: 63.9%; growth at 10 µM [24]: 34%; growth at 10 µM [25]: 54.6%; growth at 10 µM [26]: -0.94%; growth at 10 µM [27]: 71.5%; growth at 10 µM [28]: 68.9%; growth at 10 µM [29]: 78.5%; growth at 10 µM [30]: 36.1%; growth at 10 µM [31]: 63.2%; growth at 10 µM [32]: 87.8%; growth at 10 µM [33]: 59.7%
COc1cc(Cl)cc(-c2nn(-c3cccc(NC(=O)Nc4cccc(C(F)(F)F)c4)c3)cc2-c2ccncc2)c1	-7.89	-20.9	17	-13.5	26.2	-11.7	13.2	34.1	16.1	3.34	19	11.8	5.07	-9.16	3.94	0.3	4.64	-4.59	-6.11	12.9	growth at 10 µM [21]: 9.81%; growth at 10 µM [22]: 12.5%; growth at 10 µM [23]: 5.44%; growth at 10 µM [24]: -9.92%; growth at 10 µM [25]: 6.89%; growth at 10 µM [26]: -6.74%; growth at 10 µM [27]: 16.1%; growth at 10 µM [28]: 9.99%; growth at 10 µM [29]: 5.3%; growth at 10 µM [30]: -7.87%; growth at 10 µM [31]: -0.45%; growth at 10 µM [32]: 14.1%; growth at 10 µM [33]: 8.08%
